Experimental data taken from patent publication US12241902B2, “Probes for detection of copper” (The Regents of the University of California, priority 2019, dated 2025).

What was measured:
[1] = Ratiometric fluorescence response (F526/F576) to Cu(I) in aqueous buffer
Description: (§1) UV-vis absorption and emission measurements. FCP-1 stock solution in DMSO (5 mM) was prepared, aliquoted and stored at […]. For each spectroscopic measurement, a fresh aliquot was diluted to 500 μM by DMSO and further diluted with PBS containing 2 mM GSH/PEG-400 mixture (3:2, v/v) to prepare the sensing solution with 5 μM of FCP-1. The sensing solution was pre-incubated in a water bath at 37° C., and then [Cu(CH3CN)](PF6) in MeCN or other metal ions in H2O was added. The solution mixture was kept at 37° C. and taken out for UV-vis absorption or emission spectroscopic measurements in quartz cuvette at predetermined time intervals. Emission spectra were corrected using coumarin 153 as secondary emission standard (4). Photoluminescence quantum yield (PLQY) was determined using fluorescein in 0.1 M NaOH solution (0.95; λex=496 nm). FRET efficiency from the fluorescein moiety to rhodamine moiety of FCP-1 was estimated by [1−(PLQY of FCP-1/PLQY of FL-TPA)].
The ratiometric fluorescence change of FCP-1 at 526 and 576 nm (F526/F576) was rapid and reached saturation after ca. 30 min in the presence of a two-fold excess of Cu(I) (10 μM).

[2] = Metal ion selectivity of the ratiometric fluorescence change
Description: (A) Changes in corrected emission spectra of FCP-1 (5 μM) in aqueous buffer solution. […] (B) Corrected emission spectra of FCP-1 measured at various concentrations. […] (D) Changes in F526/F576 ratio of FCP-1 (5 μM) towards various biologically relevant metal ions, as well as cobalt(II)-containing vitamin B12. Black bars represent the ratiometric emission response observed upon addition of competing metal ions (1 mM for Na^+, K^+, Mg^2+ and Ca^2+, and 10 μM for all the other d-block metal ions as well vitamin B12) after 15 min. Red bars represent the ratiometric emission response upon subsequent addition of 10 μM of Cu(I) after 15 min. (E) Emission spectra and (F) F526/F576 emission ratio of FCP-1 (5 μM) with addition of Cu(II) (10 μM), Cu(II) (10 μM)+GSH (2 mM), or Cu(I) (10 μM)+GSH (2 mM) after 15 min. All spectra were acquired in aqueous buffer (PBS with 2 mM GSH and 40 vol % PEG-400) with λex=458 nm.
as §1
This oxidation state-specificity is important for the applications of FCP-1 in imaging dynamic changes in intracellular labile Cu(I) pools under redox stress and oncogenic transformation.

[3] = system: labile Cu(I) pools in HEK 293T cells; test: Ratiometric confocal fluorescence imaging of labile Cu(I) in HEK 293T cells; assay type: cell-based, Human
Description: (A) Confocal fluorescence microscopy images of HEK 293T cells pretreated with solvent vehicle control or varying concentrations of CuCl2 in complete medium for 18 h. The cells were then washed with PBS, incubated with FCP-1 (5 μM) in DPBS for 45 min and then imaged. (B) Average cellular ratiometric emission ratios, represented by Fgreen/Forange, as determined from imaging experiments in (A) performed in triplicate. (C) Confocal fluorescence microscopy images of HEK 293T cells pretreated with solvent vehicle control or BCS (100 μM) in complete medium for 18 h. The cells were then washed with PBS, incubated with FCP-1 (5 μM) in DPBS for 45 min and then imaged. (D) Average cellular ratiometric emission ratios of FCP-1, Fgreen/Forange, as determined from experiments in (C) performed in triplicate. […] (E) ICP-MS measurement to determine total cellular ^63Cu levels in HEK293T cells under copper supplementation and depletion relative to the control (with normalization of different cell numbers by total cellular ^31P level). Error bars denote standard derivation (SD; n=3). *p<0.05, **p<0.01, ***p<0.001, ****p<0.0001 and *****p<0.00001.
Cell culture. Following cell cultures were grown: Human embryonic kidney (HEK 293T) cells were maintained in Dulbecco's Modified Eagle Medium (DMEM) supplemented with 10 vol % fetal bovine serum (FBS), 1 vol % GlutaMax (Gibco) and 1 vol % non-essential amino acids (NEAA, Gibco). Ctrl1^+/+ and Ctr1^−/− MEF cells were maintained in DMEM with 10 vol % FBS, 1 vol % non-essential amino acids, 1 vol % sodium pyruvate and 0.1 vol % 2-mercaptoethanol or DMEM supplemented with 10 vol % FBS and 1× Penicillin-Streptomycin. Human cervical epithelial carcinoma (HeLa) was maintained in DMEM medium supplemented with 1 vol % GlutaMAX and 10 vol % FBS. […]
Confocal fluorescence microscopy imaging. For confocal fluorescence imaging experiments of HEK293T, MEF Ctr1^+/+ and Ctr1^−/− and HeLa cells, the cells were plated on 8-well Lab Tek borosilicate chambered coverglass slides (Nunc), and allowed to grow to ca. 60% confluency before performing the cell imaging experiments. […] For quantification, a threshold value was set as background and the average intensity of the whole image was measured by ImageJ. […]
Given the metal and oxidation state-selective and sensitive response of FCP-1 to Cu(I), this probe was examined for ratiometric fluorescence imaging of labile Cu(I) pools in living cells. […] The observed increases and decreases in labile Cu(I) levels upon copper supplementation (CuCl2) and copper depletion (BCS) treatments, respectively, as measured by FCP-1 imaging were supported by complementary ICP-MS measurements of total copper levels showing expected increases and decreases in the total copper pool (FIG. 9, panel C).

[4] = FCP-1 5 μM, Cu(I) 10 μM, over time, λex 458 nm

## CC[N+](CC)=c1ccc2c(-c3ccccc3C(=O)O)c3ccc(N4CCN(Cc5cccc(CN(Cc6ccccn6)Cc6cccc(COc7ccc8c(-c9ccccc9C(=O)OC)c9ccc(=O)cc-9oc8c7)n6)n5)CC4)cc3oc-2c1 [FCP-1]
[1]; FCP-1 5 μM, Cu(I) 10 μM, 15 min, PBS with 40 vol % PEG-400
  F526/F576 ratio with Cu(I) at different GSH concentrations: higher F526/F576 ratios at lower GSH concentrations
[1]; [4]
  fluorescein emission at 526 nm upon addition of Cu(I): increase in fluorescein emission at 526 nm
  rhodamine fluorescence at 576 nm upon addition of Cu(I): drop in rhodamine fluorescence at 576 nm
[1]; aqueous buffer, λex 458 nm (FIG. 8)
  total fluorescence at higher probe concentrations: less fluorescent at higher concentrations
[1]; two-fold excess of Cu(I) (10 μM)
  time to saturation of ratiometric fluorescence change F526/F576: ca. 30 min
[2]; 10 μM cobalamin
  change in ratiometric signal with cobalamin (vitamin B12): no significant changes in ratiometric signal
[2]; 1 mM Na+, K+, Mg2+, Ca2+, 10 μM d-block metal ions, 15 min
  selectivity of ratiometric fluorescence change: selective toward Cu(I) over other biologically relevant metal ions
[2]; Co(II) 10 μM
  change of fluorescence with free Co(II): altered FCP-1 fluorescence modestly
[2]; solutions containing other biologically relevant metal ions, then 10 μM Cu(I)
  detection of Cu(I) in competitive experiments: ability of FCP-1 to detect Cu(I)
[3]; BCS 100 μM pretreatment, FCP-1 5 μM
  Fgreen/Forange ratio in copper-deficient cells compared to control: statistically significant decrease
[3]; CuCl2 25-300 μM pretreatment, FCP-1 5 μM 45 min
  Fgreen/Forange ratio in copper-supplemented cells over vehicle control: statistically significant, dose-dependent increase
[3]; FCP-1 5 μM, DRAQ-5 (FIGS. 10-11)
  cell viability by nuclear staining: remained viable
